This note sets out measurements from publication PMC9144445, “Substrate-Based Design of Cytosolic Nucleotidase IIIB Inhibitors and Structural Insights into Inhibition Mechanism” (Pharmaceuticals, 2022).

Assay [1] addresses mouse eIF4E (Mus musculus, UniProt P63073). The assay can be described thus: eIF4E competition binding assay with pyrene-labelled fluorescent probe. Conditions: for EC50: mouse eIF4E 400 nM, pyrene-labelled probe 75 nM.
The target in assay [2] is human cN-IIIA (Homo sapiens, UniProt Q9H0P0). The assay can be described thus: IC50 determination for cN-IIIA (MGP assay). It counts as biochemical. The settings on record: for IC50: m7GMP 100 µM, cN-IIIA 40 nM, 25 min, MGP assay. The protocol:
To determine the inhibitory potency towards cN-IIIA, compounds were evaluated using the MGP assay in an analogous way as described above for cN-IIIB.
All experiments were performed in triplicate.

The subject of assay [3] is endogenous cN-IIIB, m^7GMP dephosphorylation in cytoplasmic HEK 293T cell extracts. The assay can be described thus: m7GMP decay in HEK 293T cell extract in presence of inhibitors (LC–MS/MS). It is filed as biochemical, human. The settings on record: compound 100 µM, [2H]-m7GMP 4 µM, 37 °C, up to 60 min. The protocol: The expression of cN-IIIB was verified by Western blot and was the most abundant in HEK 293T among four tested cell lines (Figure 9A). The cN-IIIA isoform was likewise abundantly expressed in the HEK cell line. The stability and activity of the inhibitors were tested in HEK 293T cell extracts using mass spectrometry analysis. The evaluated set of compounds contained some of the identified cN-IIIB inhibitors: 4, 5, 5a, and 5d of varying inhibitory potencies as well as compound S16 with no inhibitory potency (negative control). Initially, we verified the stability of the compounds in the extracts. The LC–MS/MS analyses confirmed that all analyzed compounds were stable in the lysate for at least 60 min (Figure 9B). Then, we monitored the time-dependent degradation of heavy m^7GMP, deuterated within the methyl group ([^2H]-m^7GMP]) in the extracts, in the presence or absence of the evaluated compounds (100 µM each, Figure 9C).
A typical reaction contained 1 µL–40 µM (final concentrations 4 µM) of [^2H]m^7GMP and 9 µL cell extracts. […]
Chromatographic separation of nucleotides and their metabolites was achieved on a ZORBAX Eclipse Plus C18 analytical column (3.5 μm, 4.6 mm × 100 mm, Agilent) equipped with Eclipse Plus-C18 analytical guard column (5.0 μm, 4.6 × 12.5 mm). […] Then, the analytes in the HPLC eluate were monitored by MS in multiple reaction monitoring (MRM) mode. […]

Chain of mouse eIF4E (P63073 whole entry): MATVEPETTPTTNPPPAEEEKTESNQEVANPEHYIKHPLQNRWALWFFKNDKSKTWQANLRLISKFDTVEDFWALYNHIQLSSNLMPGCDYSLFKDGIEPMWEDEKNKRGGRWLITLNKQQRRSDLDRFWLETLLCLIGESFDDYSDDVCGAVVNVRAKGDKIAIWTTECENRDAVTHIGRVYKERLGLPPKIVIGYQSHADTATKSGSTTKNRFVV

As a reminder, the EC50 is the concentration giving half of the maximal effect. As usually defined, the IC50 is the concentration that inhibits the measured activity by half. In the case of `Nc1nc2c(c(=O)[nH]1)[n+](Cc1ccc(C(F)(F)F)cc1)cn2[C@@H]1O[C@H](COP(=O)([O-])O)[C@@H](O)[C@H]1O` [Compound 5g, 7-(4-Trifluoromethylbenzyl)guanosine 5’-Monophosphate], the “Affinity to eIF4E compared to m7GMP” value in assay [1] (comparison of EC50 values) is reported as “at least two-fold lower affinity”. Further, the EC50 in assay [1] turned out to be 118 ± 66.4 µM. Also, the “SI (cN-IIIB/eIF4E)” value in assay [1] (ratio of IC50 for cN-IIIB and EC50 for eIF4E) worked out at 0.06. In addition, in assay [2], the midpoint of inhibition, the IC50, lay at 42.5 ± 8.3 µM. The “SI (cN-IIIB/cN-IIIA)” value in assay [2] (ratio of IC50 for cN-IIIB and IC50 for cN-IIIA) was determined as 0.17.

Molecule `Nc1nc2c(c(=O)[nH]1)[n+](Cc1ccccc1)cn2[C@@H]1O[C@H](COP(=O)([O-])O)[C@@H](O)[C@H]1O` [Compound 5] showed a half-inhibitory concentration (IC50) in assay [2] of 113 ± 38.5 µM.

For `Cc1cccc(C[n+]2cn([C@@H]3O[C@H](COP(=O)([O-])O)[C@@H](O)[C@H]3O)c3nc(N)[nH]c(=O)c32)c1` [Compound 5a], in assay [1], the response was half-maximal at 22.6 ± 4.3 µM (EC50). In assay [2], this molecule yielded a half-maximal inhibitory concentration (IC50) of 127 ± 35.6 µM.

In assay [1], `Nc1nc2c(c(=O)[nH]1)[n+](Cc1ccc(F)c(F)c1)cn2C1OC(COP(=O)([O-])O)C(O)C1O` (centres unmarked) [Compound 5d] registered a half-maximal effective concentration (EC50) of 39.9 ± 8.5 µM. In addition, the IC50 in assay [2] is 106 ± 26.6 µM.

On to `C[n+]1cn([C@@H]2O[C@H](Cn3cc(CCP(=O)([O-])O)nn3)[C@@H](O)[C@H]2O)c2nc(N)[nH]c(=O)c21` [Compound S16], for which the “Inhibition of m7GMP decay in HEK 293T cell extract (in words)” value in assay [3] was “almost complete decay of m^7GMP was observed within the first 50 min”.
